Assay results published in US20260132132A1, “3A,4,5,6-TETRAHYDRO-1 H-PYRAZOLO[3,4-C]PYRIDIN-7(7AH)-ONE DERIVATIVES AS FACTOR XIIA INHIBITORS” (KALVISTA PHARMACEUTICALS LIMITED, priority 2022, published 2026).

Molecular target: T1, Human Factor XIIa (hFXIIa) (Homo sapiens, UniProt P00748)
T1 construct: purchased Enzyme Research Laboratories
T1 sequence (P00748 373-615 limits assumed): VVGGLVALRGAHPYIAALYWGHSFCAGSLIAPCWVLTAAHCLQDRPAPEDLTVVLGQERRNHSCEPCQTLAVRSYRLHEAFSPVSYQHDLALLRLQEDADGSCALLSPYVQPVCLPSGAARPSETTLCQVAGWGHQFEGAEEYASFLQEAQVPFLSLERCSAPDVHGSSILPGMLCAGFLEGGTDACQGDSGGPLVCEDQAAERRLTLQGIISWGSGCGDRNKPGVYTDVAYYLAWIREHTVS
T1 sequence (P00748 20-372 partner limits assumed): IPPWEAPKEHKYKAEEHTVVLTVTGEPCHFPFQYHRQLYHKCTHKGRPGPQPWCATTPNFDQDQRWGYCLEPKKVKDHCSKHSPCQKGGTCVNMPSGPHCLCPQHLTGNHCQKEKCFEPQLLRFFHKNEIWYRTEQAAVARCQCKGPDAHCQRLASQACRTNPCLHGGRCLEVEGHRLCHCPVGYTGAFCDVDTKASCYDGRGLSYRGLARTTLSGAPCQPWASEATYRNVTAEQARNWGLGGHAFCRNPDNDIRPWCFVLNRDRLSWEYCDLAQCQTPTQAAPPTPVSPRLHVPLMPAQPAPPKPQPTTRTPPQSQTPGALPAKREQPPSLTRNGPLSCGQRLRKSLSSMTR
Assay: Determination of Human Factor XIIa (hFXIIa) inhibition, fluorogenic substrate IC50 assay
Type: biochemical
Details: fluorogenic substrate H-DPro-Phe-Arg-AFC at Km, 25° C., read-out: Human FXIIa IC50
Protocol: Determination of Human Factor XIIa (hFXIIa) inhibition
The Km for the cleavage of the substrate by hFXIIa was determined by standard transformation of the Michaelis-Menten equation, with subsequent inhibition assays performed at substrate Km concentration.

SMILES	IC50 [nM]
CN1CCc2ccc(N3CCc4c(C(=O)NC5COCC5CO)nn(-c5cccc(Cl)c5)c4C3=O)cc2C1=O (stereo not shown) [Example 1251, 1-(3-chlorophenyl)-N-(4-(hydroxymethyl)tetrahydrofuran-3-yl)-6-(2-methyl-1-oxo-1,2,3,4-tetrahydroisoquinolin-7-yl)-7-oxo-4,5,6,7-tetrahydro-1H-pyrazolo[3,4-c]pyridine-3-carboxamide]	300 to 1000
Cc1cc(CNC(=O)c2nn(-c3cccc(Cl)c3)c3c2CCN(c2ccc4c(c2)C(=O)N(CCO)CC4)C3=O)n[nH]1 [Example 1255, 1-(3-chlorophenyl)-6-(2-(2-hydroxyethyl)-1-oxo-1,2,3,4-tetrahydroisoquinolin-7-yl)-N-((5-methyl-1H-pyrazol-3-yl)methyl)-7-oxo-4,5,6,7-tetrahydro-1H-pyrazolo[3,4-c]pyridine-3-carboxamide]	100 to 300
O=C(NCc1cc(C2CC2)[nH]n1)c1nn(-c2cccc(Cl)c2)c2c1CCN(c1ccc3c(c1)C(=O)N(CCO)CC3)C2=O [Example 1259, 1-(3-chlorophenyl)-N-((5-cyclopropyl-1H-pyrazol-3-yl)methyl)-6-(2-(2-hydroxyethyl)-1-oxo-1,2,3,4-tetrahydroisoquinolin-7-yl)-7-oxo-4,5,6,7-tetrahydro-1H-pyrazolo[3,4-c]pyridine-3-carboxamide]	100 to 300
Cc1n[nH]c(C)c1CNC(=O)c1nn(-c2cccc(Cl)c2)c2c1CCN(c1ccc3c(c1)C(=O)N(C)CC3)C2=O [Example 1268, 1-(3-chlorophenyl)-N-((3,5-dimethyl-1H-pyrazol-4-yl)methyl)-6-(2-methyl-1-oxo-1,2,3,4-tetrahydroisoquinolin-7-yl)-7-oxo-4,5,6,7-tetrahydro-1H-pyrazolo[3,4-c]pyridine-3-carboxamide]	300 to 1000
CN1CCc2ccc(N3CCc4c(C(=O)N5CCOCC5)nn(-c5cccc(Cl)c5)c4C3=O)cc2C1=O [Example 1272, 7-(1-(3-chlorophenyl)-3-(morpholine-4-carbonyl)-7-oxo-1,4,5,7-tetrahydro-6H-pyrazolo[3,4-c]pyridin-6-yl)-2-methyl-3,4-dihydroisoquinolin-1(2H)-one]	3000 to 10000
Cc1cc(CNC(=O)c2nn(-c3cccc(Cl)c3)c3c2CCN(c2ccc4c(c2)N(C)C(=O)C4(C)C)C3=O)nn1C [Example 1276, 1-(3-chlorophenyl)-N-((1,5-dimethyl-1H-pyrazol-3-yl)methyl)-7-oxo-6-(1,3,3-trimethyl-2-oxoindolin-6-yl)-4,5,6,7-tetrahydro-1H-pyrazolo[3,4-c]pyridine-3-carboxamide]	3000 to 10000
CN1CCc2ccc(N3CCc4c(C(=O)NCC56CCC(CO)(C5)O6)nn(-c5cccc(Cl)c5)c4C3=O)cc2C1=O (stereo not shown) [Example 1280, 1-(3-chlorophenyl)-N-((4-(hydroxymethyl)-5-oxabicyclo[2.1.1]hexan-1-yl)methyl)-6-(2-methyl-1-oxo-1,2,3,4-tetrahydroisoquinolin-7-yl)-7-oxo-4,5,6,7-tetrahydro-1H-pyrazolo[3,4-c]pyridine-3-carboxamide]	300 to 1000
CN1CCc2ccc(N3CCc4c(C(=O)NCC56CC(CO)(CCO5)C6)nn(-c5cccc(Cl)c5)c4C3=O)cc2C1=O [Example 1283, 1-(3-chlorophenyl)-N-((5-(hydroxymethyl)-2-oxabicyclo[3.1.1]heptan-1-yl)methyl)-6-(2-methyl-1-oxo-1,2,3,4-tetrahydroisoquinolin-7-yl)-7-oxo-4,5,6,7-tetrahydro-1H-pyrazolo[3,4-c]pyridine-3-carboxamide]	300 to 1000
Cc1cc(CNC(=O)c2nn(-c3cccc(Cl)c3)c3c2CCN(c2ccc4c(c2)C(=O)N(CCO)CCO4)C3=O)nn1C [Example 1288, 1-(3-Chlorophenyl)-N-[(1,5-dimethylpyrazol-3-yl)methyl]-6-[4-(2-hydroxyethyl)-5-oxo-2,3-dihydro-1,4-benzoxazepin-7-yl]-7-oxo-4,5-dihydropyrazolo[3,4-c]pyridine-3-carboxamide]	10 to 100

The remaining lines, values ahead:

IC50 [nM]	SMILES
300 to 1000	CN1CCc2ccc(N3CCc4c(C(=O)NC[C@H]5COCCO5)nn(-c5cccc(Cl)c5)c4C3=O)cc2C1=O [Example 1246, (S)-N-((1,4-dioxan-2-yl)methyl)-1-(3-chlorophenyl)-6-(2-methyl-1-oxo-1,2,3,4-tetrahydroisoquinolin-7-yl)-7-oxo-4,5,6,7-tetrahydro-1H-pyrazolo[3,4-c]pyridine-3-carboxamide]
300 to 1000	CN1CCc2ccc(N3CCc4c(C(=O)NC[C@@H]5COCCO5)nn(-c5cccc(Cl)c5)c4C3=O)cc2C1=O [Example 1249, (R)-N-((1,4-dioxan-2-yl)methyl)-1-(3-chlorophenyl)-6-(2-methyl-1-oxo-1,2,3,4-tetrahydroisoquinolin-7-yl)-7-oxo-4,5,6,7-tetrahydro-1H-pyrazolo[3,4-c]pyridine-3-carboxamide]
10000 to 40000	O=C(NCC1CC1)c1nn(-c2cccc(Cl)c2)c2c1CCN(c1cccc(C(=O)N3CCCC3)c1)C2=O [Example 1263, 1-(3-chlorophenyl)-N-(cyclopropylmethyl)-7-oxo-6-(3-(pyrrolidine-1-carbonyl)phenyl)-4,5,6,7-tetrahydro-1H-pyrazolo[3,4-c]pyridine-3-carboxamide]
10000 to 40000	CC(=O)N(C)c1cccc(N2CCc3c(C(=O)NCC4CC4)nn(-c4cccc(Cl)c4)c3C2=O)c1 [Example 1269, 1-(3-chlorophenyl)-N-(cyclopropylmethyl)-6-(3-(N-methylacetamido)phenyl)-7-oxo-4,5,6,7-tetrahydro-1H-pyrazolo[3,4-c]pyridine-3-carboxamide]
10000 to 40000	CN(C(=O)c1cccc(N2CCc3c(C(=O)NCC4CC4)nn(-c4cccc(Cl)c4)c3C2=O)c1)C1CC1 [Example 1270, 1-(3-chlorophenyl)-6-(3-(cyclopropyl(methyl)carbamoyl)phenyl)-N-(cyclopropylmethyl)-7-oxo-4,5,6,7-tetrahydro-1H-pyrazolo[3,4-c]pyridine-3-carboxamide]
3000 to 10000	CN(C)C(=O)c1ccnc(N2CCc3c(C(=O)NCC4CC4)nn(-c4cccc(Cl)c4)c3C2=O)c1 [Example 1273, 1-(3-chlorophenyl)-N-(cyclopropylmethyl)-6-(4-(dimethylcarbamoyl)pyridin-2-yl)-7-oxo-4,5,6,7-tetrahydro-1H-pyrazolo[3,4-c]pyridine-3-carboxamide]
300 to 1000	CN1CCc2ccc(N3CCc4c(C(=O)NC[C@H]5C[C@H](O)C5)nn(-c5cccc(Cl)c5)c4C3=O)cc2C1=O [Example 1274, 1-(3-chlorophenyl)-N-(((1r,3r)-3-hydroxycyclobutyl)methyl)-6-(2-methyl-1-oxo-1,2,3,4-tetrahydroisoquinolin-7-yl)-7-oxo-4,5,6,7-tetrahydro-1H-pyrazolo[3,4-c]pyridine-3-carboxamide]
10000 to 40000	CN1C(=O)C(C)(C)c2ccc(N3CCc4c(C(=O)NCC5CC5)nn(-c5cccc(Cl)c5)c4C3=O)cc21 [Example 1277, 1-(3-chlorophenyl)-N-(cyclopropylmethyl)-7-oxo-6-(1,3,3-trimethyl-2-oxoindolin-6-yl)-4,5,6,7-tetrahydro-1H-pyrazolo[3,4-c]pyridine-3-carboxamide]
3000 to 10000	CN(C)C(=O)c1cc(N2CCc3c(C(=O)NCC4CC4)nn(-c4cccc(Cl)c4)c3C2=O)ccn1 [Example 1278, 1-(3-chlorophenyl)-N-(cyclopropylmethyl)-6-(2-(dimethylcarbamoyl)pyridin-4-yl)-7-oxo-4,5,6,7-tetrahydro-1H-pyrazolo[3,4-c]pyridine-3-carboxamide]
10000 to 40000	CN(C)C(=O)c1cncc(N2CCc3c(C(=O)NCC4CC4)nn(-c4cccc(Cl)c4)c3C2=O)c1 [Example 1279, 1-(3-chlorophenyl)-N-(cyclopropylmethyl)-6-(5-(dimethylcarbamoyl)pyridin-3-yl)-7-oxo-4,5,6,7-tetrahydro-1H-pyrazolo[3,4-c]pyridine-3-carboxamide]
3000 to 10000	CN(C)C(=O)c1cc(N2CCc3c(C(=O)NCC4CC4)nn(-c4cccc(Cl)c4)c3C2=O)ccc1F [Example 1281, 1-(3-chlorophenyl)-N-(cyclopropylmethyl)-6-(3-(dimethylcarbamoyl)-4-fluorophenyl)-7-oxo-4,5,6,7-tetrahydro-1H-pyrazolo[3,4-c]pyridine-3-carboxamide]
300 to 1000	CCOC(=O)c1nn(-c2cccc(Cl)c2)c2c1CCN(c1ccc3c(c1)C(=O)N(C)CC3)C2=O [Example 1284, ethyl 1-(3-chlorophenyl)-6-(2-methyl-1-oxo-1,2,3,4-tetrahydroisoquinolin-7-yl)-7-oxo-4,5,6,7-tetrahydro-1H-pyrazolo[3,4-c]pyridine-3-carboxylate]
10000 to 40000	CCN(CC)C(=O)c1cccc(N2CCc3c(C(=O)NCC4CC4)nn(-c4cccc(Cl)c4)c3C2=O)c1 [Example 1286, 1-(3-chlorophenyl)-N-(cyclopropylmethyl)-6-(3-(diethylcarbamoyl)phenyl)-7-oxo-4,5,6,7-tetrahydro-1H-pyrazolo[3,4-c]pyridine-3-carboxamide]
